For data set [1] the following is noted: prior clinical studies; cited from earlier work.
Data set [2] concerns early-onset Lmx1b developmental glaucoma model. The data set can be described thus: Intraocular pressure (IOP) in mice with early-onset Lmx1b developmental glaucoma model. Format: in vivo. From the text:
Ethyl pyruvate's ability to treat or prevent IOP elevation ocular developmental abnormalities was surprising at least because such effects have not been observed with sodium pyruvate treatments.

The test system of data set [3] is early onset Lmx1b developmental glaucoma model. Briefly: Ocular developmental abnormalities (iridocorneal adhesions, anterior chamber depth) in Lmx1b glaucoma mice. Format: in vivo. The source says: As shown in FIGS. 4-6, in addition to preventing or treating high IOP, treatment of mice harboring an early onset Lmx1b developmental glaucoma model with ethyl pyruvate, alone or in combination with a metabolite boosting agent, unexpectedly rescued ocular developmental abnormalities. […] Ethyl pyruvate's ability to treat or prevent IOP elevation ocular developmental abnormalities was surprising at least because such effects have not been observed with sodium pyruvate treatments.

Data set [4] shares this test system. Briefly: Glaucomatous optic nerve damage (neurodegeneration) in Lmx1b glaucoma mice. Format: in vivo. The conditions noted are these: FIG. 8.
A short description of data set [5]: Long-term dosing of mice, adverse effects. It is filed as in vivo. The following applies: mice dosed for at least up to nine months. The protocol: Ethyl pyruvate was sourced from Sigma-Aldrich. […] See, e.g., Clinical Trial Identifier NCT00107666 (human cardiac trial, dosing ethyl pyruvate at 7.5 g (90 mg/kg) intravenously, every six hours for two days); Xiujing Sun et al., Ethyl Pyruvate Supplemented in Drinking Water Ameliorates Experimental Nonalcoholic Steatohepatitis, 137 Biomedical Pharmacotherapy 111392 (2021); Leilei Mao et al., Ethyl Pyruvate Improves White Matter Remodeling in Rats After Traumatic Brain Injury, 27 CNS Neuroscience & Therapeutics 113 (2021); C. C. Jacobs et al, Ethyl Pyruvate Diminishes the Inflammatory Response to Lipopolysaccharide Infusion in Horses, 45 Equine Veterinary J. 333 (2013). […] Furthermore, ethyl pyruvate is an FDA-approved food additive and flavoring agent.

For data set [6] the following is noted: multiple mammalian species, including humans, mice, rats, and horses; cited from earlier work.
The test system of data set [7] is age-onset mouse glaucoma models. Briefly: IOP in age-onset mouse glaucoma models. Format: in vivo. How it is done: In some embodiments, one or more of these factors may lead to glaucoma. In some embodiments, the mouse model is a Lmx1b mouse model. This is unexpected at least because sodium pyruvate had no effect on IOP in age-onset mouse glaucoma models, or in the early-onset Lmx1b developmental glaucoma model. For example, treatment of Lmx1b mice with about 500 mg/kg/day of sodium pyruvate had no effect on IOP at 2, 3, and 4-months post-treatment. This is also unexpected at least because calcium pyruvate had no effect on IOP in humans in prior clinical studies.

Setting [8] is: about 500 mg/kg/day, 2, 3, and 4-months post-treatment, Lmx1b mice.

On to calcium pyruvate, for which the IOP in humans result in data set [1] is listed as “no effect”.
On to `CCOC(=O)C(C)=O` [ethyl pyruvate], for which the IOP result was “lessening of IOP” in data set [2] (ethyl pyruvate 500 mg/kg/day, out to two months of age, FIG. 1) and “lessening of IOP” in data set [2] (ethyl pyruvate 2000 mg/kg/day, FIG. 2). The anterior chamber deepening entry in data set [3] (FIGS. 5-6) is listed as “significant effect in preventing or reducing anterior chamber deepening”. Further, in data set [3] (ethyl pyruvate 2000 mg/kg/day, FIG. 4), the “incidence and severity of iridocorneal adhesions” value was “less incidence and severity”. Also, in data set [4] (ethyl pyruvate 2000 mg/kg/day, mice aged to six months), the “glaucomatous optic nerve damage (neurodegeneration)” value was “lessening of glaucomatous optic nerve damage”. In data set [5], the adverse effects entry is reported as “without adverse effects”. The safety and tolerability entry in data set [6] is “safe and well-tolerated”.
As for `NC(=O)c1cccnc1` [nicotinamide], in data set [4] (nicotinamide 550 mg/kg/day), the “glaucomatous optic nerve damage” value was “protective from glaucomatous optic nerve damage”.
Consider `CC(=O)C(=O)[O-].[Na+]` [sodium pyruvate], for which the IOP entry in data set [2] (setting [8]) and in data set [7] was “no effect” in each case. Also, the IOP elevation entry in data set [2] (sodium pyruvate 500 mg/kg/day, after two months, FIG. 7) is recorded as “no effect”. Also, in data set [2] (sodium pyruvate 500 mg/kg/day, at three and four months), the “IOP compared to untreated” value is “no changes were observed”. Further, the “severity of anterior eye developmental abnormalities” value in data set [3] (setting [8]) was “no effect”; in data set [3] (sodium pyruvate 500 mg/kg/day), “no change”.
